The target of this experiment is SAP (Homo sapiens, UniProt P02743). The experiment in a line: Inhibition of binding of 125I radiolabelled SAP to Neisseria meningitidis immobilized in microtitre plates. Set-up: 5 μl of radiolabelled SAP in TN; from tissue. To be noted: read-out: Percent inhibition of binding of radiolabelled SAP to immobilized Neisseria meningitidis.
SAP, sequence (P02743 20-223): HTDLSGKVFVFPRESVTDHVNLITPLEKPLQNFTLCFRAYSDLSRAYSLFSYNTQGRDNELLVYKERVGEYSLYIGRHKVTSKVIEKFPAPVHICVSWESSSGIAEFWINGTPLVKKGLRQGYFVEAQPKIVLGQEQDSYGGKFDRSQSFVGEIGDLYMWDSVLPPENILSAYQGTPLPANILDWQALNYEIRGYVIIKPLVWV

Consider `O=C(O)[C@H]1CCCN1C(=O)CCCCC(=O)N1CCC[C@@H]1C(=O)O` [Ro-63-8695, (R)-1-[6-[(R)-2-Carboxy-pyrrolidin-1-yl]-6-oxo-hexanoyl]pyrrolidine-2-carboxylic acid], for which the inhibition at 0.2 µM (compound 200 nM) is 5%. Also, the inhibition at 2 µM (compound 2 μM) was determined as 61%. Further, the inhibition at 20 µM (compound 20 μM) stood at 74%. Under “compound 200 μM”, the inhibition at 200 µM came out at 79%. Where the note is “compound 2 mM”, the inhibition at 2000 µM came out at 100%.

The inhibition is how much of the control response was suppressed.

The values above are taken from patent US7659299B2, “Compounds inhibiting the binding of sap for treating osteoarthritis” (Pentraxin Therapeutics Limited, priority 2003, dated 2010).
